We go through six molecules from ChEMBL document CHEMBL1158273, “New pyranocoumarins isolated from Calophyllum lanigerum and Calophyllum teysmannii” (J Nat Prod, 1996).

Activity calls are given as the source filed them. No cut-off for these calls is given here.

The test system of data set [1] is Human immunodeficiency virus 1. Kind of data set: Antiviral activity against HIV1 infected in human H9 cells assessed as effect on virus-induced cytopathic effect by tetrazolium/formazan assay. Type of data set: functional, organism-based. The conditions noted are these: for EC50: Human immunodeficiency virus 1, H9. For orientation: Damage to the host cells serves as the signal in cytopathic effect assays.

Data set [2] has as its system H9. The data set can be described thus: Cytotoxicity against human H9 cells. Type of data set: cell-based.
Data set [3] in a line: Therapeutic index, ratio of IC50 for human H9 cells to EC50 for HIV1. The conditions noted are these: read-out: Ratio IC50/EC50. The format is cell-based.

The term IC50 denotes the concentration that gives 50% inhibition. High values mean lower potency, low ones higher potency. Broadly, the EC50 is the concentration giving half of the maximal effect.

`C/C=C(\C)C(=O)c1c(OC)cc(OC)c2c(CCC)cc(=O)oc12`: the outcome in data set [1] was inactive. Besides, in data set [2], the midpoint of inhibition, the IC50, lay at 1000 nM.
For the molecule `CCCC1CC(=O)Oc2c(C(=O)C(C)C(C)O)c(O)c3c(c21)OC(C)(C)C=C3` (centres undefined) [CALANOLIDE E2], the outcome in data set [1] was inactive. The half-maximal inhibitory concentration (IC50) in data set [2] was found to be 2500 nM.
For the molecule `CCCc1cc(=O)oc2c3c(c4c(c12)OC(C)(C)C=C4)O[C@@H](C)[C@@H](C)[C@@H]3O` [CALANOLIDE F], the 50% effective concentration (EC50) in data set [1] turned out to be 2840 nM. The molecule further gave an IC50 in data set [2] of 12700 nM. Moreover, the selectivity ratio in data set [3] stood at 4.5.
As for `CC1CC(=O)Oc2c(C(=O)C(C)C(C)O)c(O)c3c(c21)OC(C)(C)C=C3` (centres undefined) [CORDATOLIDE E], the outcome in data set [1] was inactive. Further, in data set [2], it took 14000 nM to reach half-maximal inhibition (IC50).
Take `CCCc1cc(=O)oc2c3c(c4c(c12)OC(C)(C)C=C4)O[C@@H](C)[C@H](C)[C@@H]3O` [COSTATOLIDE]: the EC50 in data set [1] was 220 nM. It took 9800 nM to reach half-maximal inhibition in data set [2] (IC50). For the same molecule, the selectivity ratio in data set [3] stood at 44.5.
Regarding `Cc1cc(=O)oc2c3c(c4c(c12)O[C@@H](C)[C@@H](C)[C@H]4O)OC(C)(C)C=C3` [PSEUDOCARDATOLIDE C], the result in data set [1] was inactive. Further, 2600 nM corresponded to half-maximal inhibition in data set [2] (IC50).
